Data on four molecules can be found in US20240059677A1, “SUBSTITUTED PYRIMIDINE DERIVATIVES AS NICOTINIC ACETYLCHOLINESTERASE RECEPTOR ALPHA 6 MODULATOR” (priority 2020, published 2024).

Molecules are shown by their SMILES. Marks after values point to notes of the source that are not given here.

Assay [1] has as its target T1, human nAChRα6-α3 chimera, in addition to β2 and β3^V273S subunits (Homo sapiens, UniProt P32297+Q15825).
T1 construct: expressed in transfected cells
Put plainly: fluorescence-based calcium assay: inhibition of nicotine stimulated nAChRα6 activity (FLIPR). As to conditions: HEK cell line stably expressing the receptor; 10 min pre-incubation, nicotine EC80; 10-point curve, duplicate wells; read-out: IC50. Put shortly: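 HEK cells stably expressing the human α6-α3 chimera with β2 and β3^V273S were loaded with calcium dye at 30° C. Compounds were pre-incubated for 10 min before nicotine at EC80, and the fluorescence change was read on a FLIPR. Ten-point half-log concentration-response, duplicate wells.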

The test system of assay [2] is tremulous jaw movements induced by tacrine in Sprague-Dawley rats. As to the kind of experiment: tacrine-induced tremulous jaw movements, rats. The settings on record: rat; 10 mg/kg p.o.; tacrine 5 mg/kg i.p.; n=10/group; tremulous jaw movements relative to vehicle (100%). Type of assay: in vivo. As to the method:
(§1) Resting tremor is one of the classic symptoms of Parkinson's disease. These characteristic tremors can be modelled pharmacologically in preclinical models using cholinomimetics such as the acetylcholine esterase inhibitor, tacrine (5 mg/kg, i.p.) (Salamone et al, Prog Neurobiol 56: 591-611 1998) to induce tremulous jaw movement behaviours. These tremulous jaw movements are thought to arise from an imbalance between cholinergic and dopaminergic neurotransmission and are thought to mimic the imbalances in neurotransmission resulting from the dopamine loss seen in Parkinson's disease (Aosaki et al, Geriatr Gerontol Int 10: s148-s157 2010). These tremors can be reversed by agents increasing the dopamine tone, such as dopamine agonists (Salamone et al, Behav Brain Res 156: 173-179 2005).
The objective of these studies was to evaluate the effects of oral administration of Example Compounds on tremulous jaw movements induced by tacrine in male C57BL/6J mice or Sprague-Dawley rats. […] For each animal the latency to the first tremulous jaw movement and the total duration of the tremulous jaw movements post tacrine administration were recorded. […]
(§2) Statistical significance was assessed using an unpaired student's t-test vs vehicle * p<0.05, ***p<0.001.

In assay [3] the test system is tremulous jaw movements induced by tacrine in male C57BL/6J mice. As to the kind of experiment: tacrine-induced tremulous jaw movements, mice. Type of assay: in vivo. As to conditions: mouse; 10 mg/kg p.o.; tacrine 5 mg/kg i.p.; n=10/group; tremulous jaw movements relative to vehicle (100%). As to the method: as §1
The objective of these studies was to evaluate the effects of oral administration of Example Compounds on tremulous jaw movements induced by tacrine in male C57BL/6J mice or Sprague-Dawley rats. Animals were administered vehicle (0.5% methylcellulose, p.o.) or Example Compound (across a range of doses; 10 mg/kg, p.o. data shown) 15 to 60 minutes prior to behavioural testing (n=10/group). Tacrine (5 mg/kg, i.p.) was administered to all animals immediately before behavioural assessment commenced. For each animal the latency to the first tremulous jaw movement and the total duration of the tremulous jaw movements post tacrine administration were recorded.
illustrative data shown is percentage attenuation of tacrine-induced tremulous jaw movements relative to vehicle (100%). Each compound shown was tested at 10 mg/kg p.o.
as §2

T1 sequence (Q05901 25-458 V273S): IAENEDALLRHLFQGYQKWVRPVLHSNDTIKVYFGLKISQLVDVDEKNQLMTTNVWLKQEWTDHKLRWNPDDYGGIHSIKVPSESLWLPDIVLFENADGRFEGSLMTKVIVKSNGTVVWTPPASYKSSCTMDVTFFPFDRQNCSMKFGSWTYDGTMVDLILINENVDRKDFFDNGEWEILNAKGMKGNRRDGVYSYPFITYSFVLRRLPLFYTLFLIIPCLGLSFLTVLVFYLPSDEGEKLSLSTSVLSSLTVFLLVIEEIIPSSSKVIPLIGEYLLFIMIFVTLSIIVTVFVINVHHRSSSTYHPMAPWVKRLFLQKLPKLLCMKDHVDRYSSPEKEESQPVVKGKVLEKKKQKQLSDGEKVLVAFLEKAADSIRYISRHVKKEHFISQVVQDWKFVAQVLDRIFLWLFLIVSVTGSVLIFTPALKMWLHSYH
T1 sequence (P17787 26-502, stated change not applied, further chain): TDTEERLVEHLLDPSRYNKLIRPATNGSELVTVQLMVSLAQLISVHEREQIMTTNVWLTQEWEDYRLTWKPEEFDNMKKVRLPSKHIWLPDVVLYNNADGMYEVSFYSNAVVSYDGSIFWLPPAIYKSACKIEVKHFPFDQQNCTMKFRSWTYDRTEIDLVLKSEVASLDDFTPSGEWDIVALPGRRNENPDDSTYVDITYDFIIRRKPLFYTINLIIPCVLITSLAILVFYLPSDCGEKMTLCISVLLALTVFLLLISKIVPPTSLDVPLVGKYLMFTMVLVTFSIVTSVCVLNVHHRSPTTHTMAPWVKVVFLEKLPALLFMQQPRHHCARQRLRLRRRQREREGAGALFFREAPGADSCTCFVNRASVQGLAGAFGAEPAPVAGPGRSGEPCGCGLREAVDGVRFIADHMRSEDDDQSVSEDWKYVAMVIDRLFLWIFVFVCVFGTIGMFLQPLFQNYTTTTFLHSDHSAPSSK
T1 sequence (Q15825+P32297 fused with the stated changes): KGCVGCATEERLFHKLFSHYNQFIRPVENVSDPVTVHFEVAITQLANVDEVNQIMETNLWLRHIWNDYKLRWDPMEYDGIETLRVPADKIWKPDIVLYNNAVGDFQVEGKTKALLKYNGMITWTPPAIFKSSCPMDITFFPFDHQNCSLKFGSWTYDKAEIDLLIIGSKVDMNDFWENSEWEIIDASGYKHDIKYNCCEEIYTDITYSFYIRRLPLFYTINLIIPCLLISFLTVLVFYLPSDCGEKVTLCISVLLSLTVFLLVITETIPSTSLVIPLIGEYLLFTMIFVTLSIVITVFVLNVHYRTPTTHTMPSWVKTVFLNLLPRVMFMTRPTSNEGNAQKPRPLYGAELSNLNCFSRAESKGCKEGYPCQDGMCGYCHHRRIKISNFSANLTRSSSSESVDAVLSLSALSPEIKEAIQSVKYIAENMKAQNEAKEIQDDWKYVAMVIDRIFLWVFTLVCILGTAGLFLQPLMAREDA

Usually IC50 stands for the concentration at which inhibition is half-maximal. Take `CC(C)N1CCC(Nc2ncc(-c3ccc(F)cc3F)c(C#N)n2)CC1` [Example 65, 5-(2,4-difluorophenyl)-2-((1-isopropylpiperidin-4-yl)amino)pyrimidine-4-carbonitrile]: the IC50 in assay [1] is 84 nM. In assay [2], the “% Decrease from vehicle or percentage relative to vehicle (100%), (mean ± SEM)” value is on record as 30.0 ± 12.8* %.
Regarding `Cc1nc(NC[C@@H]2CCCN2)ncc1-c1ccc(F)cc1F` [Example 94b, (S)-5-(2,4-difluorophenyl)-4-methyl-N-(pyrrolidin-2-ylmethyl)pyrimidin-2-amine], the IC50 in assay [1] stood at 5 nM. For the same molecule, the “% Decrease from vehicle or percentage relative to vehicle (100%), (mean ± SEM)” value in assay [3] is 79.9 ± 7.2%.
The corresponding values for `Cc1nc(NC[C@H]2CCCN2C)ncc1-c1ccc(F)cc1F` [Example 24b, (R)-5-(2,4-difluorophenyl)-4-methyl-N-((1-methylpyrrolidin-2-yl)methyl) pyrimidin-2-amine] are 5 nM and 23.9 ± 3.8*** %.
The matching figures for `CCN1CCC[C@H](Nc2ncc(-c3ccc(F)cc3F)c(C)n2)C1.O=C(O)/C=C/C(=O)O` (single isomer, unassigned) [Example 78b]: 60 nM and 23.8 ± 7.7*** %.
